pIC50: −log10 of the molar value.
What was measured:
[1] = target: T1, 3-hydroxy-3-methylglutaryl-coenzyme A reductase (Rattus norvegicus) (UniProt P51639); test: In vivo hepatic cholesterol synthesis inhibitory activity in male Sprague-Dawley rat after oral administration at a concentration of 2.0 mg/kg; format: functional, organism-based; parameters: dose 2 mg/kg
T1 sequence (whole entry): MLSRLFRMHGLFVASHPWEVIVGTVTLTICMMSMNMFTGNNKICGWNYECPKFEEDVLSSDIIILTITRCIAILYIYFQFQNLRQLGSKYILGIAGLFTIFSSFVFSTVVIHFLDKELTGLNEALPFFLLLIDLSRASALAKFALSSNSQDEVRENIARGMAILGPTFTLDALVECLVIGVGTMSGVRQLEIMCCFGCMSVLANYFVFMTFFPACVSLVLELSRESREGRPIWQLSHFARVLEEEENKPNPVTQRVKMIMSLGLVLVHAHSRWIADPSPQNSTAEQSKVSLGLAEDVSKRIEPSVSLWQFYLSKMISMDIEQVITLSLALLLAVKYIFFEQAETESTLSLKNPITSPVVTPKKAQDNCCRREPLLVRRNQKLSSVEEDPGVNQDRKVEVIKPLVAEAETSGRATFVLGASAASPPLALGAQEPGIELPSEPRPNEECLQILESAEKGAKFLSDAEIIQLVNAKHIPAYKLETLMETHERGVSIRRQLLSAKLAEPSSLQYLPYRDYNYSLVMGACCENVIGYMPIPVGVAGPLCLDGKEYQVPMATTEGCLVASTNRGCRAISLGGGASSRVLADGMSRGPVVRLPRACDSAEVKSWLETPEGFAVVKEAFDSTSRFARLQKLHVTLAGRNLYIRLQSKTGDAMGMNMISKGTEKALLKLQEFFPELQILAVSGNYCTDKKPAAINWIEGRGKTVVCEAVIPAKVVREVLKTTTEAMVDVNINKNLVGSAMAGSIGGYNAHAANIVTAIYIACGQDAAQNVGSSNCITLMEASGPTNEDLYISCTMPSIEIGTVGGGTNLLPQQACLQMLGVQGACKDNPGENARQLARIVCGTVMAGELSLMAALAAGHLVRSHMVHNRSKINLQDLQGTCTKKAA

[2] = target: T1, 3-hydroxy-3-methylglutaryl-coenzyme A reductase (Rattus norvegicus); test: In vivo hepatic cholesterol synthesis inhibitory activity in male Sprague-Dawley rat after oral administration at a concentration of 0.2 mg/kg; format: functional, organism-based; parameters: dose 0.2 mg/kg
[3] = target: T2, 3-hydroxy-3-methylglutaryl-coenzyme A reductase (Rattus norvegicus, UniProt P51639); test: In vitro HMG-CoA reductase inhibitory activity to inhibit sterol synthesis in cell free system in rat
T2 sequence (P51639 whole entry): T1 sequence (whole entry)

[4] = target: T1, 3-hydroxy-3-methylglutaryl-coenzyme A reductase (Rattus norvegicus); test: In vitro rat HMG-CoA reductase inhibitory activity required to inhibit sterol synthesis in cell free system with pravastatin as reference compound
[5] = target: T3, 3-hydroxy-3-methylglutaryl-coenzyme A reductase (Homo sapiens) (UniProt P04035); test: In vitro HMG-CoA reductase inhibitory activity required to inhibit cellular steroidgenesis in Hep G2 cells (human hepatoma cell line) with pravastatin as reference compound; format: cell-based; settings: HepG2
T3 sequence (whole entry): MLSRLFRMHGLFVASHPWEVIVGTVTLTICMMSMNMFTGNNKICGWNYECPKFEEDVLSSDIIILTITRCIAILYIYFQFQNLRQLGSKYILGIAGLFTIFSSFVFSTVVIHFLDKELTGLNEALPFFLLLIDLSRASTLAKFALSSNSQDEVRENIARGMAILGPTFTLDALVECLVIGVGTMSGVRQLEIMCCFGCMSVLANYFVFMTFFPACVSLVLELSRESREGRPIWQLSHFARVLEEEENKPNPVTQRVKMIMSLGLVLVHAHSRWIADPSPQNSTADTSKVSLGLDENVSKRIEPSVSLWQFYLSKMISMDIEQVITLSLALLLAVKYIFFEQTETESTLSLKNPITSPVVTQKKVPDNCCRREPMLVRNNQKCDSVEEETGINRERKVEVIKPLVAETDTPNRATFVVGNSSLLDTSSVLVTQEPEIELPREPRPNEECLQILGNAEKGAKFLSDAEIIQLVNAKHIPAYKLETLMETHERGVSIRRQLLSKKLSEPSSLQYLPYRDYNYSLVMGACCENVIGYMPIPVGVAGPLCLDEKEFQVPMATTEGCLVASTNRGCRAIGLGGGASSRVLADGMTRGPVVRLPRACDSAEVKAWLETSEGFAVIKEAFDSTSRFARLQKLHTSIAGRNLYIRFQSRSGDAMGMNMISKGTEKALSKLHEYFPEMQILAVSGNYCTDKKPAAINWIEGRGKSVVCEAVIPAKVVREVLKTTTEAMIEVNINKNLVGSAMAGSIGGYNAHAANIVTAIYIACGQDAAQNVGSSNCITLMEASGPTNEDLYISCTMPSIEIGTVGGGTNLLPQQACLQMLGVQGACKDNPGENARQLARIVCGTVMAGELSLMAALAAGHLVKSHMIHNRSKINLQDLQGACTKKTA

Compound	inhibition [1]	inhibition [2]	pIC50 [3]	Relative potency [4]	Relative potency [5]
CC[C@H](C)C(=O)O[C@H]1C[C@H](O)C=C2C=C[C@H](C)[C@H](CC[C@@H](O)C[C@@H](O)CC(=O)O)[C@H]21 [PRAVASTATIN SODIUM]	27.8%	35.4%	8.38		
CC(C)c1nc2c(c(-c3ccccc3)nn2C)c(-c2ccc(F)cc2)c1/C=C/[C@@H](O)C[C@@H](O)CC(=O)O	71.1%	37%		21	6
CC(C)c1nc2onc(-c3ccccc3)c2c(-c2ccc(F)cc2)c1/C=C/[C@@H](O)C[C@@H](O)CC(=O)O	52.3%	33.7%		83	1

Source: ChEMBL document CHEMBL1134061, “Synthesis and biological evaluations of condensed pyridine and condensed pyrimidine-based HMG-CoA reductase inhibitors” (Bioorg Med Chem Lett, 2001)
